Laboratory results: US11566007B2, “Ras inhibitors” (Revolution Medicines, Inc., priority 2019, dated 2023)

What was measured:
NCI-H358 (K-Ras G12C) = test: CellTiter-Glo cell viability assay, NCI-H358; format: cell-based, human; details: Homo sapiens, NCI-H358, 120 h, NCI-H358, 5-day treatment; class symbols; read-out: Additional H358 Cell Viability assay data (K-Ras G12C, IC50)
Summary of the method: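 Viability of K-Ras mutant lines is measured by ATP luminescence after five days of compound treatment. Percent of DMSO control is calculated and dose-response data are fitted with a four-parameter logistic equation.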

K-Ras G13C = K-Ras G13C (Homo sapiens (Human), UniProt P01116+P62937, G13C); test: Ras-Raf (BRAF RBD) disruption / FRET / MOA assay, KRAS G13C; format: biochemical; details: KRAS G13C; Ras-Raf disruption/FRET/MOA assay; read-out: IC50* KRAS G13C FRET data
Summary of the method: (§1)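 Ras:RAF disruption was scored as a fall in TR-FRET ratio relative to DMSO. Compound ranged in 3-fold steps over 10 points from 30 μM final; incubation ran 3 h at 25° C, detection antibodies a further 1.5 h. Reported as IC50.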

KRAS G12D = KRAS G12D (Homo sapiens (Human), UniProt P01116+P62937, G12D); test: Ras-Raf (BRAF RBD) disruption / FRET / MOA assay, KRAS G12D; format: biochemical; details: Ras-Raf disruption/FRET/MOA assay; class symbols; read-out: KRAS G12D FRET data IC50
Summary of the method: as §1

KRAS G12V = KRAS G12V (Homo sapiens (Human), UniProt P01116+P62937, G12V); test: Ras-Raf (BRAF RBD) disruption / FRET / MOA assay, KRAS G12V; format: biochemical; details: read-out: IC50* KRAS G12V FRET data
Summary of the method: as §1

NRAS G12C = NRAS G12C (Homo sapiens (Human), UniProt P01111+P62937, G12C); test: Ras-Raf (BRAF RBD) disruption / FRET / MOA assay, NRAS G12C; format: biochemical; details: read-out: IC50* NRAS G12C FRET data
Summary of the method: as §1

NRAS Q61R = NRAS Q61R (Homo sapiens (Human), UniProt P01111+P62937, Q61R); test: Ras-Raf (BRAF RBD) disruption / FRET / MOA assay, NRAS Q61R; format: biochemical; details: NRAS Q61R; Ras-Raf disruption/FRET/MOA assay; read-out: IC50* NRAS Q61R FRET data
Summary of the method: (§2)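 TR-FRET disruption of nucleotide-loaded Ras binding to BRAF RBD via compound-driven ternary complex with cyclophilin A. Compound as 10-point 3-fold series from 30 μM final, 3 h at 25° C, then anti-His Eu-W1024 (10 nM) and anti-GST allophycocyanin (50 nM) for 1.5 h. IC50 from decreased FRET ratio versus DMSO.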

NRAS WT = NRAS WT (Homo sapiens (Human), UniProt P01111+P62937); test: Ras-Raf (BRAF RBD) disruption / FRET / MOA assay, NRAS WT; format: biochemical; details: read-out: IC50* NRAS WT FRET data
Summary of the method: as §2

Sequence of NRAS G12C (P01111 whole entry G12C): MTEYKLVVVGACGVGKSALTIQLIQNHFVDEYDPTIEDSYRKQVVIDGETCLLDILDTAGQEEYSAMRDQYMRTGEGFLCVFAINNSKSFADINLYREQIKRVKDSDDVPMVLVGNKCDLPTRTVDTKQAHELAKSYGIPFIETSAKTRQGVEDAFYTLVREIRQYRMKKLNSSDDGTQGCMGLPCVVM
Sequence of NRAS G12C (P62937 whole entry): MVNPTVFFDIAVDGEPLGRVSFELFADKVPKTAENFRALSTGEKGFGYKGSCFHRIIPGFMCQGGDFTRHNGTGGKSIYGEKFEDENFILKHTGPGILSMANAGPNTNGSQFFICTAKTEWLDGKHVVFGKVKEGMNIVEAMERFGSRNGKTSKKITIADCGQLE
Sequence of NRAS WT (P01111 whole entry): as the sequence (P01111 whole entry G12C) above, with C12G counted along it
Sequence of NRAS WT (P62937 whole entry): as the sequence (P62937 whole entry) above
Sequence of K-Ras G13C (P01116-2 other isoform, or with tags, fused parts or gaps G13C): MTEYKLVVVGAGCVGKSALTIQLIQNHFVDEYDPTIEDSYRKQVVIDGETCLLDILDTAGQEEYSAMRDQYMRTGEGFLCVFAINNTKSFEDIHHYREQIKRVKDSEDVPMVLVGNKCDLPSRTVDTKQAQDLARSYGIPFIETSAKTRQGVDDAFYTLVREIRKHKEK
Sequence of K-Ras G13C (P62937 whole entry): as the sequence (P62937 whole entry) above
Sequence of KRAS G12V (P01116-2 other isoform, or with tags, fused parts or gaps G12V): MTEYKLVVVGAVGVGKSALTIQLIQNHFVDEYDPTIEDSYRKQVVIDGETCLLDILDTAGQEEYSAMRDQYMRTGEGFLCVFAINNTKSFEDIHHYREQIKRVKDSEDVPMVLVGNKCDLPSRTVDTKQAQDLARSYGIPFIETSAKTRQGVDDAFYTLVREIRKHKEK
Sequence of KRAS G12V (P62937 whole entry): as the sequence (P62937 whole entry) above
Sequence of KRAS G12D (P01116-2 other isoform, or with tags, fused parts or gaps G12D): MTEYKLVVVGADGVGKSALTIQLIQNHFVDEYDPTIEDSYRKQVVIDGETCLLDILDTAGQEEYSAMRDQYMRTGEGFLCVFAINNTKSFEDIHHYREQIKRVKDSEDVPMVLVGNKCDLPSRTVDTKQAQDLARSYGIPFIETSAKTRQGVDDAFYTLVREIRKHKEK
Sequence of KRAS G12D (P62937 whole entry): as the sequence (P62937 whole entry) above
Sequence of NRAS Q61R (P01111 whole entry Q61R): as the sequence (P01111 whole entry G12C) above, with C12G, Q61R counted along it
Sequence of NRAS Q61R (P62937 whole entry): as the sequence (P62937 whole entry) above

Row | Structure (SMILES) | IC50 (NCI-H358 (K-Ras G12C)) | IC50 (K-Ras G13C) | IC50 (KRAS G12D) | IC50 (KRAS G12V) | IC50 (NRAS G12C) | IC50 (NRAS Q61R) | IC50 (NRAS WT)
1 | C=CC(=O)N1CC2(CCN(C(=O)N(C)[C@H](C(=O)N[C@H]3Cc4cccc(c4)-c4ccc5c(c4)c(c(-c4cccnc4[C@H](C)OC)n5CC)CC(C)(C)COC(=O)[C@@H]4CCCN(N4)C3=O)C(C)C)CC2)C1 (atropisomer, axis not shown) [Example A680] | 10 to 100 nM | 10 to 100 nM | 1000 to 10000 nM | 100 to 1000 nM | 100 to 1000 nM | 100 to 1000 nM | 100 to 1000 nM
2 | C=CC(=O)N1CC[C@@H]2[C@H](C1)CN2C(=O)N(C)[C@H](C(=O)N[C@H]1Cc2nc(cs2)-c2ccc3c(c2)c(c(-c2cccnc2[C@H](C)OC)n3CC)CC(C)(C)COC(=O)[C@@H]2CCCN(N2)C1=O)C(C)C (atropisomer, axis not shown) [Example A688] | 100 to 1000 nM | 100 to 1000 nM | 1000 to 10000 nM | 1000 to 10000 nM | 100 to 1000 nM | 100 to 1000 nM | 100 to 1000 nM
3 | C=CC(=O)N1CCC2(CCCN(C(=O)N(C)[C@H](C(=O)N[C@H]3Cc4nc(cs4)-c4ccc5c(c4)c(c(-c4cccnc4[C@H](C)OC)n5CC)CC(C)(C)COC(=O)[C@@H]4CCCN(N4)C3=O)C(C)C)C2)CC1 (atropisomer, axis not shown) [Example A696] | 100 to 1000 nM | 100 to 1000 nM | 100 to 1000 nM | 100 to 1000 nM | 100 to 1000 nM | 100 to 1000 nM | 100 to 1000 nM
4 | CCn1c(-c2cccnc2[C@H](C)OC)c2c3cc(ccc31)-c1cccc(c1)C[C@H](NC(=O)[C@@H](COC1CN(C(=O)C#CC(C)(C)O)C1)C(C)C)C(=O)N1CCC[C@H](N1)C(=O)OCC(C)(C)C2 (atropisomer, axis not shown) [Example A708] | 10 to 100 nM | 1000 to 10000 nM | > 10000 nM | 1000 to 10000 nM | 100 to 1000 nM | > 10000 nM | 1000 to 10000 nM
5 | CCn1c(-c2cccnc2[C@H](C)OC)c2c3cc(ccc31)-c1csc(n1)C[C@H](NC(=O)[C@H](C(C)C)N(C)C(=O)N1CCN(C(=O)/C=C/CN(C)C)C[C@@H]1C)C(=O)N1CCC[C@H](N1)C(=O)OCC(C)(C)C2 (atropisomer, axis not shown) [Example A709] | 10 to 100 nM | 100 to 1000 nM | 100 to 1000 nM | 100 to 1000 nM | 10 to 100 nM | 100 to 1000 nM | 10 to 100 nM
6 | CCn1c(-c2cccnc2[C@H](C)OC)c2c3cc(ccc31)-c1csc(n1)C[C@H](NC(=O)[C@H](C(C)C)N(C)C(=O)N1CC(N(C)C(=O)/C=C/CN(C)C)C1)C(=O)N1CCC[C@H](N1)C(=O)OCC(C)(C)C2 (atropisomer, axis not shown) [Example A710] | 10 to 100 nM | 100 to 1000 nM | 100 to 1000 nM | 100 to 1000 nM | 10 to 100 nM | 100 to 1000 nM | 100 to 1000 nM
7 | C=C(OC)C(=O)N1CC(N(C)C(=O)N(C)[C@H](C(=O)N[C@H]2Cc3nc(cs3)-c3ccc4c(c3)c(c(-c3cccnc3[C@H](C)OC)n4CC)CC(C)(C)COC(=O)[C@@H]3CCCN(N3)C2=O)C(C)C)C1 (atropisomer, axis not shown) [Example A713] | 10 to 100 nM | 1000 to 10000 nM | 1000 to 10000 nM | 1000 to 10000 nM | 100 to 1000 nM | 100 to 1000 nM | 100 to 1000 nM
8 | C=CC(=O)N1CC[C@H](C(=O)N(C)[C@H](C(=O)N[C@H]2CN3CCC=C(C3)c3ccc4c(c3)c(c(-c3cccnc3[C@H](C)OC)n4CC)CC(C)(C)COC(=O)[C@@H]3CCCN(N3)C2=O)C(C)C)C1 (atropisomer, axis not shown) [Example A716, (3S)-1-acryloyl-N-((2S)-1-(((6^3S,4S)-1^1-ethyl-1^2-(2-((S)-1-methoxyethyl)pyridin-3-yl)-10,10-dimethyl-5,7-dioxo-2^1,2^2,2^3,2^6,6^1,6^2,6^3,6^4,6^5,6^6-decahydro-1^1H-8-oxa-1(5,3)-indola-6(1,3)-pyridazina-2(5,1)-pyridinacycloundecaphane-4-yl)amino)-3-methyl-1-oxobutan-2-yl)-N-methylpyrrolidine-3-carboxamide] | 10 to 100 nM | 1000 to 10000 nM | > 10000 nM | 1000 to 10000 nM | 100 to 1000 nM | > 10000 nM | 1000 to 10000 nM
9 | CCn1c(-c2cccnc2[C@H](C)OC)c2c3cc(ccc31)-c1nc(nn1C)C[C@H](NC(=O)[C@@H](COC1CN(C(=O)C#CC(C)(C)N(C)C)C1)C(C)C)C(=O)N1CCC[C@H](N1)C(=O)OCC(C)(C)C2 (atropisomer, axis not shown) [Example A720, (2R)-2-(((1-(4-(dimethylamino)-4-methylpent-2-ynoyl)azetidin-3-yl)oxy)methyl)-N-((6^3S,4S,Z)-1^1-ethyl-1^2-(2-((S)-1-methoxyethyl)pyridin-3-yl)-2^1,10,10-trimethyl-5,7-dioxo-6^1,6^2,6^3,6^4,6^5,6^6-hexahydro-1^1H,2^1H-8-oxa-1(5,3)-indola-6(1,3)-pyridazina-2(5,3)-triazolacycloundecaphane-4-yl)-3-methylbutanamide] | 10 to 100 nM | 1000 to 10000 nM | > 10000 nM | 1000 to 10000 nM | 10 to 100 nM | 1000 to 10000 nM | 1000 to 10000 nM
10 | C=CC(=O)N1CCC(F)(C(=O)N(C)[C@H](C(=O)N[C@H]2C[C@H]3CN(CCO3)c3ccc4c(c3)c(c(-c3cccnc3[C@H](C)OC)n4CC)CC(C)(C)COC(=O)[C@@H]3CCCN(N3)C2=O)C(C)C)CC1 (atropisomer, axis not shown) [Example A722, 1-acryloyl-N-((2S)-1-(((6^3S,4S)-1^1-ethyl-1^2-(2-((S)-1-methoxyethyl)pyridin-3-yl)-10,10-dimethyl-5,7-dioxo-6^1,6^2,6^3,6^4,6^5,6^6-hexahydro-1^1H-8-oxa-2(4,2)-morpholina-1(5,3)-indola-6(1,3)-pyridazinacycloundecaphane-4-yl)amino)-3-methyl-1-oxobutan-2-yl)-4-fluoro-N-methylpiperidine-4-carboxamide] | 10 to 100 nM | 100 to 1000 nM | 1000 to 10000 nM | 1000 to 10000 nM | 10 to 100 nM | 1000 to 10000 nM | 100 to 1000 nM
11 | C=CC(=O)N1CC(OC[C@H](C(=O)N[C@H]2C[C@H]3CN(CCO3)c3ccc4c(c3)c(c(-c3cccnc3[C@H](C)OC)n4CC(F)(F)F)CC(C)(C)COC(=O)[C@@H]3CCCN(N3)C2=O)C(C)C)C1 (atropisomer, axis not shown) [Example A723] | 10 to 100 nM | 1000 to 10000 nM | > 10000 nM | 1000 to 10000 nM | 100 to 1000 nM | > 10000 nM | 1000 to 10000 nM
12 | CCn1c(-c2cccnc2[C@H](C)OC)c2c3cc(ccc31)-c1csc(n1)C[C@H](NC(=O)[C@H](C(C)C)N(C)C(=O)N(C)C1CN(C(=O)/C=C/[C@H]3CCCN3C)C1)C(=O)N1CCC[C@H](N1)C(=O)OCC(C)(C)C2 (atropisomer, axis not shown) [Example A729] | 100 to 1000 nM | 100 to 1000 nM | 1000 to 10000 nM | 1000 to 10000 nM | 100 to 1000 nM | 1000 to 10000 nM | 100 to 1000 nM
13 | CCn1c(-c2cccnc2[C@H](C)OC)c2c3cc(ccc31)-c1csc(n1)C[C@H](NC(=O)[C@H](C(C)C)N(C)C(=O)N(C)C1CN(C(=O)/C=C/[C@@H]3CCCN3C)C1)C(=O)N1CCC[C@H](N1)C(=O)OCC(C)(C)C2 (atropisomer, axis not shown) [Example A730] | 10 to 100 nM | 100 to 1000 nM | 1000 to 10000 nM | 1000 to 10000 nM | 10 to 100 nM | 1000 to 10000 nM | 100 to 1000 nM
